Experimental data from US8440442B2, “Method of assaying 5-FU” (Myriad Genetics, Inc, priority 2009, dated 2013).

Target: T1, dihydropyrimidine dehydrogenase (DPD) (Homo sapiens, UniProt Q12882)
T1 construct: from tissue; host or cells: donor whole blood (K2EDTA), plasma separated from it, and WBC/buffy coat
T1 sequence (Q12882 4-1025): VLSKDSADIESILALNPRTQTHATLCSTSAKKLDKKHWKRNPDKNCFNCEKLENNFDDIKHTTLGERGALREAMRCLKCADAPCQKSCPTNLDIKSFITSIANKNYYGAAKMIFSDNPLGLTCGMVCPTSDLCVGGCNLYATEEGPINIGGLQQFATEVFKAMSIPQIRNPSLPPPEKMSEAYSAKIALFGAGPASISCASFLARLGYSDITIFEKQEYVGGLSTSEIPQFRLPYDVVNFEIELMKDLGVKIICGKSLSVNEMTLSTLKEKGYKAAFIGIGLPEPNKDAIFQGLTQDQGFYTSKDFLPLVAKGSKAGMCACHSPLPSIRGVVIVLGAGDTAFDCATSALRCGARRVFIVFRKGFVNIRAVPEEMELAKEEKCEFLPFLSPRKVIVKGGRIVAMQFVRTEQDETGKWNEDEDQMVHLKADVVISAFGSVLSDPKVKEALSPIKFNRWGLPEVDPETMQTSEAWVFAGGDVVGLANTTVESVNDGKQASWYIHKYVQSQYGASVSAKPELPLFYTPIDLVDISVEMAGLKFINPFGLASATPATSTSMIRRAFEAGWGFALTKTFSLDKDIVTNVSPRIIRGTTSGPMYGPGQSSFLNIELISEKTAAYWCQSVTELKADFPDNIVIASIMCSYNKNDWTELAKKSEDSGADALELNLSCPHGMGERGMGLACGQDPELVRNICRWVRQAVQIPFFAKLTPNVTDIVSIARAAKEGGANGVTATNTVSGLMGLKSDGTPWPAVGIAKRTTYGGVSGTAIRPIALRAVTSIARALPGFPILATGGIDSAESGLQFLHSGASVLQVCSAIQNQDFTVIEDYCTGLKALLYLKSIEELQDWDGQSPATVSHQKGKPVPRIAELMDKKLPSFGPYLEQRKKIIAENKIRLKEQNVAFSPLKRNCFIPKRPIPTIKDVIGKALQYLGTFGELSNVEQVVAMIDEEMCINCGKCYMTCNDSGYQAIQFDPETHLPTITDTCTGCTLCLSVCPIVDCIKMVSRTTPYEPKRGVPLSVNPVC
Assay: Amount of DPD inactivator needed: gimeracil in 5-FU spiked blood, plasma with or without added WBC/buffy coat
Assay type: biochemical
Settings: for Average 5-FU Measurement Initial / Average 5-FU Measurement 24-hour: in ng/mL; for Average 5-FU Measurement 24-hour: plasma 24 hours at room temperature
Description: In the following illustrative examples, 5-FU was measured using an antibody-based agglutination assay on the Olympus AU680 Analyzer using an antibody disclosed in U.S. Pat. No. 7,205,116. Specifically, the concentration of 5-FU in a sample is determined based on the absorbance of a sample, which is determined by the amount of aggregation by the nanoparticles. The system requires two reagents, which when mixed in the absence of free 5-FU will form large aggregates of nanoparticles and scatter light to result in a higher absorption value. In the presence of free 5-FU, the agglutination reaction becomes somewhat inhibited and scattering of light is less, causing a lower absorption value. The instrument is calibrated twice monthly, and a curve is generated (Absorbance vs. 5-FU concentration). Absorbance values from individual samples are compared against this curve to determine concentration.
Generally in the agglutination assay, 95 μl of a buffer containing 5-FU-labeled amino-dextran is pipetted to a cuvette, followed by 7 μL of a filtered plasma sample. The sample and reagent are mixed and then incubated for about 3.5 minutes. 95 μl of 5-FU antibody-conjugated nanoparticles is pipetted into the cuvette and mixed. The complete reaction incubates for about 6.2 minutes. A series of 27 measurements at 600 nm are taken at regular intervals by the AU680 analyzer throughout this process, and 5-FU concentration is calculated using the measurements from two specific time points.
Four tubes of blood (spray-on K2EDTA tubes, 10 mL) was drawn from each of six donors, and gently inverted several times to mix anti-coagulant. All donor blood was pooled into one large tube, and two equal aliquots of that pooled blood were transferred to two new tubes. The remaining blood was used to isolate white blood cell (WBC)/buffy coat. WBC/buffy coat was isolated by centrifuging the remaining blood tubes, extracting and pooling the WBC layer from each tube, centrifuging again to enrich the WBC/buffy coat, and separating the enriched WBC/buffy coat layer into a clean tube. One volume of blood was spiked with a calculated volume of stock 5-FU (at 200 ng/μL) for a final concentration of 500 ng/mL, and the other volume of blood was spiked with a calculated volume of stock 5-FU (at 200 ng/μL) for a final concentration of 1500 ng/mL. Three sets of eight tubes each were prepared to aliquot the spiked blood into. In addition, a negative control was used that was inoculated with 300 μL of 30% methanol/water instead of gimeracil. To four of the eight tubes per set, the low concentration 5-FU blood was aliquotted, 6 mL each tube. The high concentration 5-FU blood was aliquotted to the remaining four tubes per set, as well as to the negative control tube, 6 mL each. The eight tubes were then inoculated with either 300 μL of 0.12 mg/mL gimeracil in 30% MeOH/water or 300 μL of 0.04 mg/mL gimeracil. Blood tubes were inverted to mix the gimeracil, and then sat at room temperature for 45 minutes. Blood tubes were centrifuged at 2000×g for 10 minutes and room temperature. Plasma was aspirated immediately after centrifugation and dispensed into clean cryovials. The WBC/buffy coat was added to designated tubes of plasma, and vortexed to evenly mix. Plasma samples were run under standard conditions for the AU680 analyzer (200 μL, spin for 15 minutes at 12,500 rpm). Measurements were taken immediately after adding WBC/buffy coat (“initial”), as well as 24 hours (“24-hour”), after addition of WBC/buffy coat. For the 24-hour measurement, plasma was stored at room temperature for the first 24 hours of the experiment to simulate overnight ambient shipping.

[1] = target 5-FU 500 ng/mL, gimeracil 2000 ng/mL, NO WBC
[2] = target 5-FU 500 ng/mL, gimeracil 2000 ng/mL, w/WBC
[3] = target 5-FU 500 ng/mL, gimeracil 6000 ng/mL, NO WBC
[4] = target 5-FU 500 ng/mL, gimeracil 6000 ng/mL, w/WBC
[5] = target 5-FU 1500 ng/mL, gimeracil 2000 ng/mL, NO WBC
[6] = target 5-FU 1500 ng/mL, gimeracil 2000 ng/mL, w/WBC
[7] = target 5-FU 1500 ng/mL, gimeracil 6000 ng/mL, NO WBC
[8] = target 5-FU 1500 ng/mL, gimeracil 6000 ng/mL, w/WBC

% change (Initial vs. 24-hour) [1]: −2.9% | Average 5-FU Measurement Initial (target 5-FU 500 ng/mL, gimeracil 2000 ng/mL, NO WBC, initial): 488.3 | Average 5-FU Measurement 24-hour [1]: 474.3 | % change (Initial vs. 24-hour) [2]: 2.7% | Average 5-FU Measurement Initial (target 5-FU 500 ng/mL, gimeracil 2000 ng/mL, w/WBC, immediately after adding WBC/buffy coat): 465.8 | Average 5-FU Measurement 24-hour [2]: 478.6 | % change (Initial vs. 24-hour) [3]: 1.7% | Average 5-FU Measurement Initial (target 5-FU 500 ng/mL, gimeracil 6000 ng/mL, NO WBC, initial): 479.1 | Average 5-FU Measurement 24-hour [3]: 487.3 | % change (Initial vs. 24-hour) [4]: 1.0% | Average 5-FU Measurement Initial (target 5-FU 500 ng/mL, gimeracil 6000 ng/mL, w/WBC, initial): 473.7 | Average 5-FU Measurement 24-hour [4]: 478.6 | % change (Initial vs. 24-hour) [5]: −0.5% | Average 5-FU Measurement Initial (target 5-FU 1500 ng/mL, gimeracil 2000 ng/mL, NO WBC, initial): 1434.9 | Average 5-FU Measurement 24-hour [5]: 1427.3 | % change (Initial vs. 24-hour) [6]: 2.9% | Average 5-FU Measurement Initial (target 5-FU 1500 ng/mL, gimeracil 2000 ng/mL, w/WBC, initial): 1377.7 | Average 5-FU Measurement 24-hour [6]: 1418.1 | % change (Initial vs. 24-hour) [7]: 2.0% | Average 5-FU Measurement Initial (target 5-FU 1500 ng/mL, gimeracil 6000 ng/mL, NO WBC, initial): 1430.3 | Average 5-FU Measurement 24-hour [7]: 1458.3 | % change (Initial vs. 24-hour) [8]: −0.9% | Average 5-FU Measurement Initial (target 5-FU 1500 ng/mL, gimeracil 6000 ng/mL, w/WBC, initial): 1402.9 | Average 5-FU Measurement 24-hour [8]: 1390.1
Compound: Oc1cc(O)c(Cl)cn1 [Gimeracil, 5-chloro-2,4-dihydroxypyridine]
